Experimental data: patent publication US5051253A, “Use of polyacrylates to reduce proteolytic activity in the human intestinal tract” (Reckitt & Colman Products Limited, priority 1988, dated 1991)
Like-named read-outs stand apart in the source and are kept apart here.

Tested on: faecal proteolytic activity
Test: Human faecal proteolytic activity (in-vitro), succinyl albumin substrate
Format: biochemical
Method: Human faecal extracts (from asymptomatic volunteers) were obtained by suspending samples of stool in 4 volumes of M/15M KH2 PO4 /Na2 HPO4 pH 7.5 containing 50 mM NaCl and centrifuging at 10,000 g for 15 minutes at 4° C. The supernatant was retained as the faecal extract.
Proteolytic activity was measured using a modification of the method of Lin et al, J.Biol.Chem. 244 (4), 789-793 (1969), i.e. a sensitive trinitrobenzene sulphonic acid assay for formation of new peptide N-terminals using succinyl albumin as substrate. Faecal extract containing one unit of protease activity (equivalent to 1 μg trypsin) was mixed with 0.5 ml buffer (M/15 phosphate pH 7.5) or inhibitor. Substrate (0.5 ml, 8 mgml^-1 succinyl albumin) was added to start the reaction and samples were incubated for 30 minutes at 37° C. Four per cent (w/v) sodium bicarbonate (0.5 ml) and 0.05% (w/v) trinitrobenzene sulphonic acid were added to trinitrophenylate the free amino groups formed and samples were incubated at 50° C. for 10 minutes to develop colour.
10% (w/v) Sodium dodecyl sulphate (0.5 ml) and 1M HCl (0.25 ml) were added to complete the reaction. Absorbance at 340 nm was measured. All samples were compared with heat inactivated faecal extract controls (100° C., 10 minutes).
A linear increase in N-terminals formed by proteolytic cleavage of peptide bonds was found over the first 30 minutes of digestion. […] Proteolytic activity in faecal extracts against succinyl albumin was inhibited by soybean trypsin inhibitor (1 μg) and P.M.S.F. (1 mM) but not by iodoacetamide (50 mM) or Na2 E.D.T.A. (10 mM). In view of this, levels of faecal protease activity were subsequently quantified as equivalents of porcine pancreatic trypsin activity by weight.

Molecule: O=C(O)CN(CCN(CC(=O)O)CC(=O)O)CC(=O)O [Na2 E.D.T.A.]
- Inhibition of proteolytic activity in faecal extracts against succinyl albumin: not

Molecule: O=S(=O)(F)Cc1ccccc1 [P.M.S.F., phenylmethylsulphonyl fluoride]
- Inhibition of proteolytic activity in faecal extracts against succinyl albumin (1 mM): inhibited

Molecule: NC(=O)CI [iodoacetamide]
- Inhibition of proteolytic activity in faecal extracts against succinyl albumin (50 mM): not

B1: soybean trypsin inhibitor (protein, UniProt P01070 25-205, looked up)
Trypsin inhibitor A: DFVLDNEGNPLENGGTYYILSDITAFGGIRAAPTGNERCPLTVVQSRNELDKGIGTIISSPYRIRFIAEGHPLSLKFDSFAVIMLCVGIPTEWSVVEDLPEGPAVKIGENKDAMDGWFRLERVSDDEFNNYKLVFCPQQAEDDKCGDIGISIDHDDGTRRLVVSKNKPLVVQFQKLDKESL
- Inhibition of proteolytic activity in faecal extracts against succinyl albumin (1 μg): inhibited
